For assay [1], the system named is naive female rats. Kind of assay: Cystometry test system on narcotized naive rats (suppression of spontaneous bladder contractions). In kind it is in vivo, rat. Particulars: i.v. cumulative; for minimal effective dose: Rattus norvegicus, iv, 10 min, read-out: Lowest dose at which for the first time contractions were absent over a period of 10 minutes. The method, then:
The cystometric investigation on naive female rats was carried out in accordance with the method of Kimura et al. (Kimura et al., 1996, Int. J. Urol. 3: 218-227). The abdomen of narcotized, ventilated rats is opened up and the ureter is ligated. The urine is drained from the kidneys. A catheter is inserted into the bladder and fixed. […] After stable starting values have been reached, the test substance is administered i.v. in a cumulative manner. Influencing of the bladder function manifests itself via suppression of the spontaneous contractions. In this context, the absence of contractions over a period of 10 min is a parameter for the suppression.
With all the substances listed here, a suppression of the spontaneous contractions was measurable in the rats, table 3 showing the mean of the lowest dose of at least 2 experiments at which for the first time contractions were absent over a period of 10 minutes.
With all the substances listed here, a suppression of the spontaneous contractions was measurable in the rats, table 4 showing the mean of the lowest dose of at least 2 experiments at which for the first time contractions were absent over a period of 10 minutes.
With all the substances listed here, a suppression of the spontaneous contractions was measurable in the rats, table 5 showing the mean of the lowest dose of at least 2 experiments at which for the first time contractions were absent over a period of 10 minutes. […]

For assay [2], the system named is rat. As to conditions: rat model of rhythmic bladder contractions; Nippon-Shinyaku, WO 98/46216; cited from earlier work.
Assay [3] has as its system female Sprague-Dawley rats. Kind of assay: Cystometry test system on conscious damaged rats (oxyhaemoglobin-induced bladder hyperactivity, urgency incontinence model).
Description: This model simulates the urgency incontinence in an animal model; the oxyhaemoglobin (OxyHb) employed induces a bladder hyperactivity.
Three days after implantation of bladder and venous catheters, the animals were investigated in the freely mobile, conscious state. The bladder catheter was connected to a pressure transducer and an injection pump. The animals were placed in metabolism cages which allowed measurement of the volume of urine. Physiological saline solution was infused into the emptied bladder (10 ml/h) and the bladder pressure and micturition volume were recorded continuously. After a stabilization phase, a 20 minute phase, which was characterized by normal, reproducible micturition cycles, was recorded. The following parameters, inter alia, were determined: • threshold pressure (TP, bladder pressure immediately before micturition), • bladder capacity (BC, residual volume after preceding micturition plus volume of the infused solution during the filling phase), • intercontraction interval (ICI, the interval of time between micturitions) • micturition pressure (MP, maximum bladder pressure during a micturition).
After three reproducible micturition cycles had been recorded as the pre-value, 2.5×10^−4 M oxyhemoglobin in the vehicle=0.9% NaCl were infused into the bladder. The action on the cystometric parameters was recorded for about 20 minutes. At the action maximum the mean of 3 micturition cycles was determined and shown as a percentage change compared with the pre-value (table 8).
The mark [4] stands for this setting: mean of at least 3 independent experiments.
[5] abbreviates: after OxyHb 2.5 × 10^−4 M, n = 5, average ± standard deviation.
Where [6] appears, read: pre-value before OxyHb 2.5 × 10^−4 M, n = 5, average ± standard deviation.

Where two headings read alike, the source gives them in different places.

Take `CC[C@](O)(c1ccc(Cl)c(Cl)c1)[C@H](C)CN(C)C.Cl` (racemic) [Compound 3, (2RS,3RS)-3-(3,4-dichlorophenyl)-1-dimethylamino-2-methyl-pentan-3-ol, hydrochloride]: the “Lowest dose at which for the first time contractions were absent over a period of 10 minutes” value in assay [1] (mean of at least 2 experiments) is listed as 23.3 mg/kg. Turning to `CC[C@](O)(c1cccc(C(F)F)c1)[C@H](C)CN(C)C.Cl` (racemic) [Compound 4, (2RS,3RS)-3-(3-difluoromethyl-phenyl)-1-dimethylamino-2-methyl-pentan-3-ol, hydrochloride], the minimal effective dose in assay [1] (mean of at least 2 experiments) was 1.7 mg/kg. With `CC[C@](O)(c1cccc(SC)c1)[C@H](C)CN(C)C.Cl` (racemic) [Compound 5, (2RS,3RS)-1-dimethylamino-2-methyl-3-(3-methylsulfanyl-phenyl)-pentan-3-ol, hydrochloride], the minimal effective dose in assay [1] (mean of at least 2 experiments) came to 2.3 mg/kg. Turning to `COc1cccc(C(O)(CCN(C)C)C(C)(C)C)c1.Cl` (racemic) [Compound 6, (3RS)-1-dimethylamino-3-(3-methoxy-phenyl)-4,4-dimethyl-pentan-3-ol, hydrochloride], the “Lowest dose at which for the first time contractions were absent over a period of 10 minutes” value in assay [1] (mean of at least 2 experiments) is given as 16.7 mg/kg. With `CCC(O)(c1cccc(OC)c1)C1(CN(C)C)CCCCC1.Cl` (racemic) [Compound 13, (1RS)-1-(1-dimethylaminomethyl-cyclohexyl)-1-(3-methoxy-phenyl)-propan-1-ol, hydrochloride], the minimal effective dose in assay [1] (mean of at least 2 experiments) worked out at 20 mg/kg.

In the case of `CC[C@](O)(c1ccc(Cl)cc1)[C@H](C)CN(C)C.Cl` (racemic) [Compound 14, (2RS,3RS)-3-(4-chlorophenyl)-1-dimethylamino-2-methyl-pentan-3-ol, hydrochloride], the minimal effective dose in assay [1] (mean of at least 2 experiments) amounted to 20 mg/kg. For the compound `COc1cccc(C2(O)CCCCC2CN(C)C)c1` (racemic) [Compound 23, rac-tramadol, reference compound], the “effect on bladder function (in words)” value in assay [2] is recorded as “positive effect on bladder function”. In assay [1] (mean of at least 2 experiments), the minimal effective dose worked out at 5.3 mg/kg. For the compound `COc1cccc([C@@]2(O)C[C@@H](O)CC[C@@H]2CN(C)C)c1.Cl` (racemic) [Compound 27, (1RS,3SR,6RS)-6-dimethylaminomethyl-1-(3-methoxy-phenyl)-cyclohexane-1,3-diol, hydrochloride], the minimal effective dose in assay [1] (mean of at least 2 experiments) was found to be 115 mg/kg. With `CN(C)C[C@H]1CC[C@@H](C(F)(F)F)C[C@]1(O)c1cccc(O)c1.Cl` (racemic) [Compound 29, (1RS,2RS,5RS)-3-(2-dimethylaminomethyl-1-hydroxy-5-trifluoromethyl-cyclohexyl)-phenol, hydrochloride], the minimal effective dose in assay [1] (mean of at least 2 experiments) was determined as 23.3 mg/kg. Same read-out and setting: the value for `C[C@H](CN(C)C)[C@@](C)(O)c1cccc(O)c1.Cl` [Compound 10, (+)-(1R,2R)-3-(3-dimethylamino-1-hydroxy-1,2-dimethyl-propyl)-phenol, hydrochloride] was 0.2 mg/kg; that for `CC[C@](OC(C)=O)(c1cccc(OC)c1)[C@H](C)CN(C)C.Cl` [Compound 12, (+)-(1R,2R)-acetic acid 3-dimethylamino-1-ethyl-1-(3-methoxy-phenyl)-2-methyl-propyl ester, hydrochloride] was 30 mg/kg; that for `CN(C)C[C@H]1CCCC[C@]1(F)c1cccc(O)c1.Cl` [Compound 18, (+)-(1R,2R)-3-(2-dimethylaminomethyl-1-fluoro-cyclohexyl)-phenol, hydrochloride] was 0.2 mg/kg.

For the compound `CN(C)C[C@H]1CCCC[C@@H]1c1cccc(O)c1.Cl` [Compound 19, (+)-(1S,2S)-3-(2-dimethylaminomethyl-cyclohexyl)-phenol, hydrochloride], the minimal effective dose in assay [1] (mean of at least 2 experiments) came to 0.1 mg/kg. `CN(C)C[C@@H]1CCCC[C@H]1c1cccc(O)c1.Cl` [Compound 20, (−)-(1R,2R)-3-(2-dimethylaminomethyl-cyclohexyl)-phenol, hydrochloride]: the minimal effective dose in assay [1] (mean of at least 2 experiments) was 0.5 mg/kg. Turning to `C[C@H]1CC[C@H](CN(C)C)[C@@](O)(c2cccc(O)c2)C1.Cl` [Compound 28, (+)-(1R,2R,5S)-3-(2-dimethylaminomethyl-1-hydroxy-5-methyl-cyclohexyl)-phenol, hydrochloride], the minimal effective dose in assay [1] (mean of at least 2 experiments) turned out to be 16.7 mg/kg. As for `CCC1(c2cccc(O)c2)CCCCN(C)C1` (stereo not drawn) [meptazinol, reference compound], in assay [1] (setting [4]), the minimal effective dose was found to be 1 mg/kg.

Consider `CCOC(=O)C1(c2ccccc2)CCC=CC1N(C)C` (stereo not drawn) [tilidine, reference compound], for which the minimal effective dose in assay [1] (setting [4]) was found to be 0.5 mg/kg. As to oxyhaemoglobin [OxyHb], in assay [3] (OxyHb 2.5 × 10^−4 M alone), the “BC bladder capacity, change (diff) in comparison with the pre-value” was “diff: −29.3%”; the “ICI intercontraction interval, change (diff) in comparison with the pre-value” is reported as “diff: −32.9%”; the “MP micturition pressure, change (diff.) in comparison with the pre-value” is on record as “diff.: +64.4%”; the “TP threshold pressure, change (diff.) in comparison with the pre-value” is “diff.: +12.8%”. In assay [3] (setting [5]), the “BC bladder capacity, after (a)” value is reported as “a: 0.65 ± 0.06 ml”; the “ICI intercontraction interval, after (a)” value was “a: 3.33 ± 0.18 min”; the “MP micturition pressure, after (a)” value is “a: 97 ± 5 cm H2O”; the “TP threshold pressure, after (a)” value is “a: 9.84 ± 1.56 cm H2O”. In addition, in assay [3] (setting [6]), the “BC bladder capacity, before (b)” value is recorded as “b: 0.92 ± 0.10 ml”; the “ICI intercontraction interval, before (b)” value is reported as “b: 4.96 ± 0.33 min”; the “MP micturition pressure, before (b)” value is “b: 59 ± 8 cm H2O”; the “TP threshold pressure, before (b)” value is reported as “b: 8.72 ± 1.31 cm H2O”.

Source of the values: patent US20050137194A1, “Combination of selected opioids with other active compounds for treatment of urinary incontinence” (Gruenenthal GmbH, priority 2002, published 2005).
